# Target: recombinant DYRK1A kinase (Homo sapiens (Human), UniProt Q13627)
# Experiment: DYRK1A kinase assay (Ser/Thr 18 peptide Z-lyte FRET assay)
# Format: biochemical
# Details: recombinant DYRK1A 0.25 µg/mL, ATP 15 µM, Ser/Thr peptide 18 4 µM, one hour at room temperature; table head prints EC50, method says IC50
# Summary of the method: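 Recombinant human DYRK1A (0.25 µg/mL) with 15 µM ATP and 4 µM Ser/Thr 18 peptide was incubated 1 h at room temperature with compound (11-point, 10 µM top), in duplicate. Z-lyte FRET read-out (coumarin/fluorescein emission ratio) was converted to percent phosphorylation; IC50 from non-linear regression.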
row,Structure (SMILES),EC50
1,"CO[C@H]1C[C@H](Nc2ncc3c(-c4cnc5nccn5c4)ccn3n2)C1 [Compound 240, 5-(Imidazo[1,2-a]pyrimidin-6-yl)-N-(trans-3-methoxycyclobutyl)pyrrolo [2,1-f] [1,2,4]triazin-2-amine]",14 nM
2,"Cc1nc2ccc(-c3ccn4nc(N[C@H]5CC[C@@](C)(O)CC5)ncc34)nc2n1CC(F)F [Compound 1110, (1s,4s)-4-((5-(3-(2,2-Difluoroethyl)-2-methyl-3H-imidazo[4,5-b]pyridin-5-yl)pyrrolo[2,1-f][1,2,4]triazin-2-yl)amino)-1-methylcyclohexan-1-ol]",3 nM
3,"Cc1nc2ncc(-c3ccn4nc(NC5CCC(F)(F)CC5)ncc34)cc2n1Cc1nnc([C@@H](C)F)o1 [Compound 1915, (R)-N-(4,4-Difluorocyclohexyl)-5-(1-((5-(1-fluoroethyl)-1,3,4-oxadiazol-2-yl)methyl)-2-methyl-1H-imidazo[4,5-b]pyridin-6-yl)pyrrolo[2,1-f][1,2,4]triazin-2-amine]",9 nM
4,"Cc1nc2ccc(-c3ccn4nc(N[C@H]5CC[C@@](C)(O)CC5)ncc34)nc2n1CC(=O)N(C)C [Compound 1872, 2-(5-(2-((cis-4-Hydroxy-4-methylcyclohexyl)amino)pyrrolo[2,1-f][1,2,4]triazin-5-yl)-2-methyl-3H-imidazo[4,5-b]pyridin-3-yl)-N,N-dimethylacetamide]",498 nM
5,"Cc1nc2ccc(-c3ccn4nc(N[C@H]5CC[C@@H](C(=O)N(C)C)CC5)ncc34)nc2n1CC(F)F [Compound 1845, cis-4-((5-(3-(2,2-Difluoroethyl)-2-methyl-3H-imidazo[4,5-b]pyridin-5-yl)pyrrolo[2,1-f][1,2,4]triazin-2-yl)amino)-N,N-dimethylcyclohexane-1-carboxamide]",4 nM
6,"Cc1nc2ccc(-c3ccn4nc(N[C@H]5CCN(C)C(=O)C5)ncc34)nc2n1CC(F)F [Compound 1911, (S)-4-((5-(3-(2,2-Difluoroethyl)-2-methyl-3H-imidazo [4,5-b]pyridin-5-yl)pyrrolo[2,1-f] [1,2,4]triazin-2-yl)amino)-1-methylpiperidin-2-one]",4 nM
7,"CC1(C)CC(Nc2ncc3c(-c4cnc5nccn5c4)ccn3n2)C1 [Compound 237, N-(3,3-Dimethylcyclobutyl)-5-(imidazo[1,2-a]pyrimidin-6-yl)pyrrolo[2,1-f] [1,2,4]triazin-2-amine]",3 nM
8,Cc1nc2ccc(-c3ccn4nc(NC5CCN(CCC(F)(F)F)CC5)ncc34)nc2n1CC(F)F [Compound 1851],11 nM
9,"FC(F)(F)CNc1ncc2c(-c3cnc4nccn4c3)ccn2n1 [Compound 218, 5-(Imidazo[1,2-a]pyrimidin-6-yl)-N-(2,2,2-trifluoroethyl)pyrrolo[2,1-f] [1,2,4]triazin-2-amine]",13 nM
10,"Cc1nc2ccc(-c3ccn4nc(N[C@H](C)CO)ncc34)nc2n1CC(F)F [Compound 1830, (R)-2-((5-(3-(2,2-Difluoroethyl)-2-methyl-3H-imidazo[4,5-b]pyridin-5-yl)pyrrolo[2,1-f][1,2,4]triazin-2-yl)amino)propan-1-ol]",16 nM
11,c1cn2cc(-c3ccn4nc(NCC5COC5)ncc34)ccc2n1 [Compound 20],67 nM
12,"c1cn2cc(-c3ccn4nc(NC5CCC5)ncc34)cnc2n1 [Compound 235, N-Cyclobutyl-5-(imidazo[1,2-a]pyrimidin-6-yl)pyrrolo[2,1-f][1,2,4]triazin-2-amine]",377 nM
13,"Cc1nc2ncc(-c3ccn4nc(N[C@H]5CC[C@@H](OCCO)CC5)ncc34)cc2n1CC(F)F [Compound 1878, 2-((cis-4-((5-(1-(2,2-Difluoroethyl)-2-methyl-1H-imidazo[4,5-b]pyridin-6-yl)pyrrolo[2,1-f][1,2,4]triazin-2-yl)amino)cyclohexyl)oxy)ethan-1-ol]",2 nM
14,"Cc1nc2ccc(-c3ccn4nc(N[C@H]5CC[C@@](C)(O)CC5)ncc34)nc2n1CC1COC1 [Compound 1875, cis-1-Methyl-4-((5-(2-methyl-3-(oxetan-3-ylmethyl)-3H-imidazo[4,5-b]pyridin-5-yl)pyrrolo[2,1-f][1,2,4]triazin-2-yl)amino)cyclohexan-1-ol]",14 nM

# Source: patent publication US20230312605A1, “PYRROLO[2,1-F][1,2,4]TRIAZINES AND PREPARATION AND USES THEREOF” (BioSplice Therapeutics, Inc., priority 2021, published 2023)
